In patent US6096711A, “Hsp72 induction and applications” (priority 1998, dated 2000):
Non-standard residues stand in square brackets, D forms with d. Residues, ends and D or L forms follow the SMILES beside them. *: point of attachment. Nle = CCCC[C@H](N)C(=O)O; Cbz = O=C(OCc1ccccc1)*

Key:
Hsp72 [1] = assay: Hsp72 induction in U937 cells; type: cell-based, human; design: accumulation of Hsp72: dose or concentration left out as unconfirmed; details: for levels of Hsp72: incubation of U937 cells with the compound
Procedure: (§1) U937 human lymphoid tumor cells were grown in RPMI-1640 medium with 10% fetal bovine serum and were used for experiments while in the mid log-phase (3-7.105 cells/ml). 293 human cells were grown in DMEM medium with 10% fetal bovine serum and were used in transient transfection experiments while at 40% of confluence. MG132 was purchased from Biomol Res Lab, Inc, PA. aLLN was purchased from Sigma, MO. MG132 analogs were synthesized and purified by HPLC. Anti-hsp72 antibody (SPA810) was from StressGene Biotechnologies Corp (Canada), anti-p53 antibody (PAb1801) was from SantaCruz Biotechnology, Inc, Calif.

[2] = molecular target: chymotrypsin-like activity of the proteasome; details: cited from earlier work; for Ki: slow binding inhibitors, Vinitsky et al.
Hsp27 = Hsp27 induction in U937 cells; type: cell-based, human; details: incubation of U937 cells with MG132
Procedure: as §1

JNK [3] = assay: JNK activation by heat shock in IMR90 cells pretreated with MG132; type: cell-based, Human
Procedure: (§2) Young and old cells were incubated with either […] of MG132 for 5 hours, washed with PBS and incubated in a fresh medium for an additional 12 hours.
JNK activity was assayed using GST-c-Jun protein as a substrate after immunoprecipitation with anti-JNK1 antibodies (sc-474, Santa Cruz Biotechnology, Inc., CA). Briefly, cells were lysed in a buffer containing 20 mm Tris-HCl, pH 7.4, 50 mm NaCl, 2 mm EDTA, 1% Triton X-100, 25 mm b-glycerophosphate, 10 mm NaF, 1 mm Na3VO4, and protease inhibitors (1 mm PMSF and 25 mg/ml each of aprotenin, pepstatin, leupeptin). After immunoprecipitation with anti-JNK1 antibody and protein A-sepharose for 2 h at 4° C. and washing, kinase reaction was carried out in a buffer containing 25 mm HEPES, 10 mm MgCl2, 2 mm DTT, 25 mm b-glycerophosphate, 2 mm Na3VO4 and 25 mCi 32P-g-ATP at 37° C. for 10 min. Then the samples were subjected to SDS-PAGE followed by transfer to a nitrocellulose membrane and autoradiography. This membrane was later used for immunoblot with anti-JNK1 antibody to ensure that equal amounts of the kinase were immunoprecipitated.

Hsp40 = Hsp40 induction in U937 cells; type: cell-based, human; details: incubation of U937 cells with MG132
Procedure: as §1

[4] = test system: Human lung fibroblasts IMR90; assay: Heat-induced apoptosis in IMR90 cells; type: cell-based; details: young and old IMR90 cells pretreated with MG132
Procedure: as §2
Young and old cells were subjected to heat shock at 45° C. for different time periods followed by incubation at 37° C. After 24 hours cells were stained with Hoechst 33342 according to manufacturer's specifications.

[5] = test system: U937 human lymphoid tumor cells; assay: Apoptosis / cell death of U937 cells; type: cell-based; design: induction of apoptosis by the compound itself: dose or concentration left out as unconfirmed
Procedure: as §1
PARP degradation was followed by Western blotting with anti-PARP monoclonal antibodies (C2-10, G. Poirier, Montreal, Canada). Apoptosis of 293 cells was detected by cleavage of a truncated form of Ul-70 kDa protein d12 (Romac, J. M. J. et al., Mol Cell Biol 14: 4662-4670 (1994)). Cells were transfected by calcium phosphate method with a plasmid encoding d12 tagged with T7 epitope alone or together with a dominant-negative mutant forms of SEK1 (K/R) or c-jun (TAM67). After 48 hours cells were either treated with […] MG132 or subjected to heat shock at 45° C. for 15 min. After additional 24 hours cells were lysed and cleavage of d12 was detected by Western blot with anti-T7 epitope antibody.

Hsp72 [6] = assay: Hsp72 induction in young and old IMR90 cells; type: cell-based, Human; details: compared with mild heat shock of young cells
Procedure: Human lung fibroblasts IMR90 which underwent either 12-17 divisions ("young" cells) or 62-67 divisions ("old" cells) were grown in MEM medium supplemented with 20% bovine fetal serum and 2mM glutamine. The cells were seeded at a density of 1.105 cells/35 mm plate and grown at 37° C. in an atmosphere of 95% air and 5% CO2. Cultures were split when cell density reached confluency. MG132 was purchased from Biomol Res Lab, Inc, PA. Anti-Hsp72 antibody (SPA810) was from StressGene Biotechnologies Corp (Canada).
as §2

JNK [7] = assay: JNK assay in U937 cells; type: cell-based, human; design: JNK activation by the compound itself: dose or concentration left out as unconfirmed
Procedure: as §1
JNK activity was assayed using GST-c-Jun protein as a substrate after immunoprecipitation with anti-JNK1 antibodies (sc-474, Santa Cruz Biotechnology, Inc., Calif.), or anti-HA antibody for transfected JNK (Berkley Antibody Company). Briefly, cells were lysed in a buffer containing 20 mM Tris-HCl, pH 7.4, 50 mM NaCl, 2 mM EDTA, 1% Triton X-100, 25 mM b-glycerophosphate, 10 mM NaF, 1 mM Na3VO4, and protease inhibitors (1 mM PMSF and 25 mg/ml each of aprotenin, pepstatin, leupeptin). After immunoprecipitation with anti-JNK1 or anti-HA antibody and protein A-sepharose for 2 h at 4° C. and washing, kinase reaction was carried out in a buffer containing 25 mM HEPES, 10 mM MgCl2, 2 mM DTT, 25 mM b-glycerophosphate, 2 mM Na3 VO4 and 25 mCi 32P-g-ATP at 37° C. for 10 min. Samples were then subjected to SDS-PAGE followed by transfer to a nitrocellulose membrane and autoradiography. This membrane was later used for immunoblot with anti-JNK1 antibody to ensure that equal amounts of the kinase were immunoprecipitated. p38 kinase activity was determined by Western blot with polyclonal antibody (New England Biolabs, MA) specifically recognizing the phosphorylated (active) form of p38. Later the same blot was treated with anti-p38 antibody (New England Biolabs, Mass.) to assure equal loading of the kinase on different lanes.

CC(C)C[C@H](NC(=O)[C@H](CC(C)C)NC(=O)[C@H](CC(C)C)NC(=O)OCc1ccccc1)C(N)=O [Z-LLL-amide] (Cbz-Leu-Leu-Leu-NH2)
levels of Hsp72 (Hsp72 [1]): did not lead to any significant induction

CCOC(=O)C(=O)[C@H](Cc1ccccc1)NC(=O)[C@H](CC(C)C)NC(=O)[C@H](CC(C)C)NC(=O)OCc1ccccc1 [Z-Leu-Leu-Phe-COOEt]
Ki [2]: 53 µM

CC(C)C[C@@H](C=O)NC(=O)CNC(=O)CNC(=O)OCc1ccccc1 [Z-Gly-Gly-Leu-H] (Cbz-Gly-Gly-Leu-aldehyde)
inhibition of the chymotrypsin-like activity of the proteasome ([2]; Orlowski 1990): inhibits the chymotrypsin-like activity of the proteasome

CC(C)C[C@@H](C=O)NC(=O)[C@H](CC(C)C)NC(=O)[C@H](CC(C)C)NC(=O)OCc1ccccc1 [MG132] (Cbz-Leu-Leu-Leu-aldehyde)
induction of Hsp27 (Hsp27): appeared to be induced | JNK activation by heat shock of various severity (JNK [3]): strongly suppressed in both young and old cells | induction of Hsp40 (Hsp40): appeared to be induced | protection from heat-induced apoptosis [4]: protected from apoptosis | induction of apoptosis by the compound itself ([5]; followed by withdrawal): insufficient to induce apoptosis | effect of long incubation on JNK and apoptosis ([5]; long incubation of U937 cells): prolonged activation of JNK leading to apoptosis | TNF-induced apoptosis ([5]; pretreatment with MG132): did not rescue cells from TNF-induced apoptosis and even potentiated it | cell death caused by ethanol ([5]; pretreatment with MG132): suppressed cell death caused by ethanol | extent of cell death after heat shock ([5]; pretreatment with MG132, about 40% without pretreatment): negligible level | accumulation of Hsp72 (Hsp72 [1]; after several hours of recovery): strong accumulation of Hsp72 | levels of Hsp72 (Hsp72 [1]): dramatically increase | Hsp72 levels induced (Hsp72 [6]): exceeded those triggered in young cells by a mild heat shock | JNK activation by the compound itself (JNK [7]; followed by withdrawal): activated JNK only temporally | JNK activation by severe heat shock (JNK [7]; pretreated versus untreated U937 cells): much lesser activation | activation of JNK by TNF (JNK [7]; pretreatment with MG132): strongly suppressed | activation of JNK by ethanol (JNK [7]; pretreatment with MG132): strongly suppressed

CC(C)C[C@H](NC(=O)OCc1ccccc1)C(=O)N[C@@H](CC(C)C)C(=O)N[C@H](C=O)Cc1ccccc1 [Z-LLF-H, (benzyloxycarbonyl)-Leu-Leu-phenylalaninal] (Cbz-Leu-Leu-Phe-aldehyde)
Ki [2]: 0.46 µM

CC(C)[C@H](O)[C@@]12NC(=O)[C@H](C)[C@@H]1OC2=O [lactacystin-β-lacton]
levels of Hsp72 (Hsp72 [1]): dramatically increase

CCCC[C@@H](C=O)NC(=O)[C@H](CC(C)C)NC(=O)[C@H](CC(C)C)NC(C)=O [aLLN] (Ac-Leu-Leu-[Nle]-aldehyde)
levels of Hsp72 (Hsp72 [1]): dramatically increase

CC(C)CC(C=CS(C)(=O)=O)NC(=O)C(CC(C)C)NC(=O)C(CC(C)C)NC(=O)Cc1cc(I)c(O)c([N+](=O)[O-])c1 (centres unmarked) [NIP-L3VS]
levels of Hsp72 (Hsp72 [1]): dramatically increase
